The results in this text go back to patent publication US20100016335A1, “NOVEL AMINOPYRIDINE DERIVATIVES HAVING AURORA A SELECTIVE INHIBITORY ACTION” (priority 2006, published 2010).

One experiment has as its target T1, human Aurora A (Homo sapiens, UniProt O14965).
T1 construct: His (N); made in house; host or cells: Escherichia coli BL21-CodonPlus(DE3)-RIL
T1 sequence (O14965 1-403): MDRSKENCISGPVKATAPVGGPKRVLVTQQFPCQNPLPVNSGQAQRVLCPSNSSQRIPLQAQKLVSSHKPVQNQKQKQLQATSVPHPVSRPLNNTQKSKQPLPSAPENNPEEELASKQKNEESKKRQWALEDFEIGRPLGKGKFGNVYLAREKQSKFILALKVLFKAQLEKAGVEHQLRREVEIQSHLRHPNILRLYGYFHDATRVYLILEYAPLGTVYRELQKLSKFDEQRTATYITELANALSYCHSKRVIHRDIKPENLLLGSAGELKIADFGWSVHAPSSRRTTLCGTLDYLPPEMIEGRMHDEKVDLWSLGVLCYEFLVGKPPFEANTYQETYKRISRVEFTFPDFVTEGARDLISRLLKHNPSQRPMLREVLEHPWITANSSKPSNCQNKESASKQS
The experiment in a line: Aurora A inhibitory activity (IMAP fluorescence polarization phosphorylation assay). The format is biochemical. Conditions: 20 μM ATP, 30° C., 120 minutes.

The subject of experiment [1] is Human cervical cancer cells (HeLa S3). The experiment in a line: Effect by combined use of drugs in cells (docetaxel), WST-8 method. The format is cell-based. Conditions: HeLa S3, three days; for inhibition at 1 µM: compound 1.0 μM alone. The procedure: Fetal calf serum (FCS) was purchased from Moregate Biotech, DMEM medium from Invitrogen Corp., docetaxel (tradename: Taxere) from Sigma-Aldrich, Inc., and WST-8 from Kishida Chemical Co., Ltd.
(§1) Human cervical cancer cells (HeLa S3) were obtained from the American Type Culture Collection (ATCC).
Cells were suspended in a DMEM medium containing 10% FCS, and the cell suspension was dispensed to two 96-well plastic plates at a rate of 750 cells/100 microliters per well. The plates were incubated overnight in 5% CO2-95% air at 37° C. A drug was subjected to graded dilution in dimethylsulfoxide and further diluted with DMSO or with a DMEM medium containing 10% FCS and also containing 0.6 nM docetaxel. Then, the dilutions were each dispensed to one of the plates on which cells had been disseminated in advance, at a rate of 100 microliters per well. The final concentration of docetaxel at this stage was 0.3 nM. Also, the concentrations in the case of sole administration of the compound according to the invention were 0.003, 0.01, 0.03, 0.1, 0.3, 1, 3 and 10 μM. The plates were incubated for further three days in 5% CO2-95% air at 37° C. Cell growth after incubation was measured by the WST-8 method (H. Tominaga, et al., Anal. Commun., 36, 47-50 (1999)). Here, the WST-8 method refers to a method in which 20 microliters of a WST-8 reagent solution is added to each well, incubation is conducted at 37° C. for 60 minutes, the plate is stirred, and the amount of formazan produced is measured by a colorimetric method to determine the inhibitory rate of the drug. The growth inhibitory effects of docetaxel and of the compound according to the invention were determined, with the value obtained in sole treatment of DMSO being defined as 0%.
In general terms: Tetrazolium assays rely on reduction of a dye to a coloured formazan, in cell work by metabolically active cells.

For experiment [2] the test system is unchanged. The experiment in a line: Cell growth inhibitory effect, WST-8 method. The format is cell-based. The conditions noted are these: HeLa S3, three days incubation, read-out: Cell growth inhibitory effect (HeLaS3) (IC50). The procedure:
Fetal calf serum (FCS) was purchased from Moregate Biotech, and DMEM medium was purchased from Invitrogen Corp. WST-8 was purchased from Kishida Chemical Co., Ltd.
as §1
Cells were suspended in a DMEM medium containing 10% FCS, and the cell suspension was dispensed to a 96-well plastic plate at a rate of 750 cells/100 microliters per well. The plate was incubated overnight in 5% CO2-95% air at 37° C. A drug was subjected to graded dilution in dimethylsulfoxide and further diluted with a DMEM medium containing 10% FCS. Then, the dilution was dispensed to the plate on which cells had been disseminated in advance, at a rate of 100 microliters per well. The plate was incubated for further three days in 5% CO2-95% air at 37° C. Cell growth after incubation was measured by the WST-8 method (H. Tominaga, et al., Anal. Commun., 36, 47-50 (1999)). Here, the WST-8 method refers to a method in which 20 microliters of a WST-8 reagent solution is added to each well, incubation is conducted at 37° C. for 60 minutes, the plate is stirred, and the amount of formazan produced is measured by a […] method to determine the inhibitory rate of the drug.

Experiment [3] concerns the target T2, GST-tagged human Aurora B(AurB)/His-tagged human INCENP complex proteins (Homo sapiens, UniProt Q96GD4).
T2 construct: GST; purchased Carna Biosciences, Inc
Description: Aurora B inhibitory activity (Method A, IMAP assay kit). The conditions noted are these: 40 μM ATP, 25° C., 45 minutes. The format is biochemical.

[4] abbreviates: Homo sapiens, HeLa S3, 72 h, read-out: Cell growth inhibitory effect by sole administration of the compound of Example (%).
Where [5] appears, read: compound 1.0 μM + docetaxel 0.3 nM.
[6] abbreviates: Homo sapiens, HeLa S3, 72 h, compound 0.3 μM alone, read-out: Cell growth inhibitory effect by sole administration of the compound of Example (%).
[7] abbreviates: compound 0.3 μM + docetaxel 0.3 nM.
Where [8] appears, read: compound 0.1 μM + docetaxel 0.3 nM.

Structures can show the parent of a compound that is named as a salt. Where two headings read alike, the source gives them in different places.

T2 sequence (Q96GD4 whole entry): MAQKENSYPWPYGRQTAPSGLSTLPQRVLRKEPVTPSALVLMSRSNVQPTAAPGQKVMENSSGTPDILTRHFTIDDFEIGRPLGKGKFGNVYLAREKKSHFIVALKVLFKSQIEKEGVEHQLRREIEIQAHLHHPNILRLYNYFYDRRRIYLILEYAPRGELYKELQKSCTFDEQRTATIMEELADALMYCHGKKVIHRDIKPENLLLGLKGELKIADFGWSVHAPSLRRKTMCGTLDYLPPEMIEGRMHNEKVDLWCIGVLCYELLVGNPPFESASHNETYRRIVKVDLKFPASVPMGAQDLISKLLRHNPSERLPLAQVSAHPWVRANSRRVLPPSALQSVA
T2 sequence (Q9NQS7 803-916 partner limits assumed): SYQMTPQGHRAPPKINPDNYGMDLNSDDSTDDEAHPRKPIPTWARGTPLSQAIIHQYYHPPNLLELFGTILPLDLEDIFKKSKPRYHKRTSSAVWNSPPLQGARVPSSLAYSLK

One may read the IC50 as the concentration needed to halve the response being measured. On to `O=C(O)[C@]1(Cc2cccc(Nc3nccs3)n2)CC[C@@H]([S+]([O-])c2cccc(Cl)c2Cl)CC1` (stereo partly drawn) [Example 31, trans-4-((2,3-dichlorophenyl)sulfinyl)-1-((6-(1,3-thiazol-2-ylamino)pyridin-2-yl)methyl)cyclohexanecarboxylic acid trifluoroacetate], for which the IC50 worked out at 0.00019 µM at human Aurora A; 5.89 µM in experiment [2] (Homo sapiens, 72 h); 0.053 µM in experiment [3]. For the same molecule, in experiment [1] (setting [4]), the inhibition at 1 µM was 1%. Besides, in experiment [1] (Homo sapiens, HeLa S3, 72 h, compound 3.0 μM alone, read-out: Cell growth inhibitory effect by sole administration of the compound of Example (%)), the inhibition at 3 µM is 38.5%. The “Cell growth inhibitory effect by combined administration of docetaxel and the compound of Example (%)” value is given as 75.1% in experiment [1] (setting [5]) and 89.0% in experiment [1] (compound 3.0 μM + docetaxel 0.3 nM).

Take `O=C(O)[C@]1(Cc2cccc(Nc3cc[nH]n3)n2)CC[C@@H](Sc2cccc(Cl)c2Cl)CC1` [Example 33, trans-4-((2,3-dichlorophenyl)thio)-1-((6-(1H-pyrazol-3-ylamino)pyridin-2-yl)methyl)cyclohexanecarboxylic acid trifluoroacetate]: the IC50 on human Aurora A was 0.00013 µM; in experiment [2] (Homo sapiens, 72 h) it was 2.22 µM; in experiment [3], 0.21 µM. Moreover, the inhibition at 0.3 µM in experiment [1] (setting [6]) was 0.3%. In experiment [1] (setting [4]), the inhibition at 1 µM is 23.4%. Moreover, the “Cell growth inhibitory effect by combined administration of docetaxel and the compound of Example (%)” value in experiment [1] (setting [7]) amounted to 75.5%; in experiment [1] (setting [5]), 91.3%.

Turning to `NC(=O)[C@]1(Cc2cccc(Nc3cc[nH]n3)n2)CC[C@@H](Oc2cccc(Cl)c2F)CC1` [Example 11, trans-4-(3-chloro-2-fluorophenoxy)-1-((6-(1H-pyrazol-3-ylamino)pyridin-2-yl)methyl)cyclohexanecarboxamide], the IC50 was found to be 0.0018 µM against human Aurora A; 2.8 µM in experiment [2] (Homo sapiens, 72 h); 0.75 µM in experiment [3]. Moreover, in experiment [1] (setting [6]), the inhibition at 0.3 µM stood at 15.1%. Besides, in experiment [1] (setting [4]), the inhibition at 1 µM is 25.4%. The figures for the “Cell growth inhibitory effect by combined administration of docetaxel and the compound of Example (%)” value in experiment [1] (setting [7]) and in experiment [1] (setting [5]) were 72.1% and 84.5%, respectively.

For the molecule `O=c1[nH]nc([C@]2(Cc3cccc(Nc4cc[nH]n4)n3)CC[C@@H](Oc3cccc(C(F)(F)F)c3F)CC2)o1` [Example 20, 5-(trans-4-(2-fluoro-3-(trifluoromethyl)phenoxy)-1-((6-(1H-pyrazol-3-ylamino)pyridin-2-yl)methyl)cyclohexyl)-1,3,4-oxadiazol-2(3H)-one], the IC50 on human Aurora A amounted to 0.001 µM; in experiment [2] (Homo sapiens, 72 h), 0.9 µM; in experiment [3], 0.66 µM. In addition, the inhibition at 0.3 µM in experiment [1] (setting [6]) was found to be 25.9%. In addition, the inhibition at 1 µM in experiment [1] (setting [4]) is 49.8%. Also, the “Cell growth inhibitory effect by combined administration of docetaxel and the compound of Example (%)” value in experiment [1] (setting [7]) came to 85.0%; in experiment [1] (setting [5]) it was 94.4%.

In the case of `Cl.O=C(O)[C@]1(Cc2cccc(Nc3nccs3)n2)CC[C@@H](Oc2cccc(C(F)(F)F)c2F)CC1` [Example 4, trans-4-(2-fluoro-3-(trifluoromethyl)phenoxy)-1-((6-(1,3-thiazol-2-ylamino)pyridin-2-yl)methyl)cyclohexanecarboxylic acid hydrochloride], the half-maximal inhibitory concentration (IC50) amounted to 0.00011 µM against human Aurora A; 0.83 µM in experiment [2] (Homo sapiens, 72 h); 0.032 µM in experiment [3]. For the same molecule, in experiment [1] (setting [6]), the inhibition at 0.3 µM stood at 22.9%. For the same molecule, the inhibition at 1 µM in experiment [1] (setting [4]) came out at 52.9%. For the same molecule, the results for the “Cell growth inhibitory effect by combined administration of docetaxel and the compound of Example (%)” value in experiment [1] (setting [7]) and in experiment [1] (setting [5]) were 88.6% and 93.8%, respectively.

In the case of `NC(=O)[C@]1(Cc2cncc(Nc3cc[nH]n3)n2)CC[C@@H](Oc2cccc(Cl)c2F)CC1` [Example 15, trans-4-(3-chloro-2-fluorophenoxy)-1-((6-(1H-pyrazol-3-ylamino)pyrazin-2-yl)methyl)cyclohexanecarboxamide], the IC50 at human Aurora A came out at 0.002 µM; in experiment [2] (Homo sapiens, 72 h), 1.76 µM; in experiment [3], 0.87 µM. The inhibition at 0.3 µM in experiment [1] (setting [6]) is 17%. Moreover, the inhibition at 1 µM in experiment [1] (setting [4]) worked out at 42.4%. The “Cell growth inhibitory effect by combined administration of docetaxel and the compound of Example (%)” value in experiment [1] (setting [7]) amounted to 76.4%; in experiment [1] (setting [5]), 90.8%.

Consider `CONC(=O)[C@]1(Cc2cccc(Nc3nccs3)n2)CC[C@@H](Oc2cccc(Cl)c2F)CC1` [Example 18, trans-4-(3-chloro-2-fluorophenoxy)-N-methoxy-1-((6-(1,3-thiazol-2-ylamino)pyridin-2-yl)methyl)cyclohexanecarboxamide], for which the IC50 is 0.00049 µM against human Aurora A; 0.9 µM in experiment [2] (Homo sapiens, 72 h); 0.2 µM in experiment [3]. For the same molecule, the inhibition at 0.1 µM in experiment [1] (Homo sapiens, HeLa S3, 72 h, compound 0.1 μM alone, read-out: Cell growth inhibitory effect by sole administration of the compound of Example (%)) is 7.4%. Also, in experiment [1] (setting [6]), the inhibition at 0.3 µM came out at 21.3%. For the same molecule, the “Cell growth inhibitory effect by combined administration of docetaxel and the compound of Example (%)” value is on record as 61.5% in experiment [1] (setting [8]) and 77.4% in experiment [1] (setting [7]).

Take “5-(trans-4-(3-chloro-2-fluorophenoxy)-1-((6-(1H-pyrazol-3-ylamino)pyrazin-2-yl)methyl)cyclohexyl)-1,3,4-oxadiazol-2(3H)-one [Example 29]”: the IC50 against human Aurora A worked out at 0.00019 µM; in experiment [2], 0.67 µM; in experiment [3] it was 0.67 µM. Besides, the “Cell growth inhibitory effect by combined administration of docetaxel and the compound of Example (%)” value in experiment [1] (setting [8]) was 79.0%; in experiment [1] (setting [7]), 92.9%. In addition, the entries for the “Cell growth inhibitory effect by sole administration of the compound of Example (%)” value in experiment [1] (compound 0.1 μM alone) and in experiment [1] (compound 0.3 μM alone) were 11.3% and 39.9%, respectively.

Consider `NC(=O)[C@]1(Cc2cccc(Nc3nccs3)n2)CC[C@@H](Oc2cccc(Cl)c2F)CC1` [Example 8, trans-4-(3-chloro-2-fluorophenoxy)-1-((6-(1,3-thiazol-2-ylamino)pyridin-2-yl)methyl)cyclohexanecarboxamide], for which the IC50 at human Aurora A came to 0.00054 µM; in experiment [2] (Homo sapiens, 72 h), 1.26 µM; in experiment [3] it was 0.15 µM. Also, the inhibition at 0.3 µM in experiment [1] (setting [6]) came to 12.2%. Besides, in experiment [1] (setting [4]), the inhibition at 1 µM amounted to 49%. Also, the results for the “Cell growth inhibitory effect by combined administration of docetaxel and the compound of Example (%)” value in experiment [1] (setting [7]) and in experiment [1] (setting [5]) were 84.6% and 95.0%, respectively.
